Experimental data published in patent publication US11965100B2, “Aggregation-induced emission luminogens useful for cancer cell discrimination and monitoring” (The Hong Kong University of Science and Technology, priority 2020, dated 2024).

Key:
[1] = system: A549 and HeLa cells; test: Mitochondrion-nucleolus migration on H2O2 treatment; type: cell-based; conditions: pre-stained 2 μM 30 min, 10 mM H2O2 10 min
Experimental: FIG. 17 Live A549 and HeLa cells were pre-stained with 2 μM IVP-02 for 30 min, and treated with 10 mM H2O2 for 10 min. λex=488 nm, λem=500-650 nm. Scale bar=20 μm.
Monitoring cell viability is a highly valuable task for the fundamental researches in biology, pathology, and medicine. Then we investigated whether IVP-02 could monitor cell viability. Δψm is a very important indicator to characterize cell viability. With the loss of cell viability, Δψm would decrease, while with the recovery of cell viability, Δψm would also recover to the normal level. […] Carbonyl cyanide m-chlorophenyl hydrazone (CCCP) is a type of protonophore and can cause rapid acidification of mitochondria by collapsing Δψm. Cancer cells A549 were pre-stained with IVP-02 for 30 min. In FIG. 15A, in the beginning, IVP-02 stained mitochondria clearly. […] Hydrogen peroxide (H2O2) can inhibit the oxidation respiratory chain that would cause the loss of cell viability. Then live A549 and HeLa cells were pre-stained with IVP-02, and treated with 10 mM H2O2.

[2] = Absorption and one-photon excited fluorescence spectra, AIE activity; type: physicochemical
From the text: Similar results were reported by others. […] With the increase of glycerol volume content accompanied by viscosity increasing, the FL intensity increased gradually. […] These phenomena occur because high viscosity and low temperature could hamper intramolecular motion, leading to the closure of the nonradiative decay channel and thus enhanced FL emission. Furthermore, we added some RNA in PBS solution of IVP-02. […] Based on the calculation results in FIG. 20, IVP-02 located in the minor grooves of RNA, where the intramolecular motion of IVP-02 was also hampered.

AIE activity ([2]; viscosity, temperature, RNA, solid state): possesses AIE activity | fluorescence in the solid state ([2]; λex 440 nm): around 575 nm
SMILES: CC[n+]1ccc(/C=C/c2c[nH]c3ccccc23)cc1 [IVP-02]
fluorescence after adding H2O2 [1]: strong fluorescence was observed in nucleolus
